In ChEMBL document CHEMBL1129095, “Design and synthesis of new antagonist peptides for platelet GPIIb/IIIa receptor as anti-thrombotic agents” (Bioorg Med Chem Lett, 1996):
Non-standard residues stand in square brackets, D forms with d. Residues, ends and D or L forms follow the SMILES beside them. *: point of attachment. Butyryl(4-indol-3-yl) = O=C(CCCc1c[nH]c2ccccc12)*; Dihydroorotyl(S) = O=C1C[C@@H](C(=O)*)NC(=O)N1; Phthalimidoacetyl = O=C1c2ccccc2C(=O)N1CC(=O)*; X4 = COc1ccc2[nH]c(C)c(CC(=O)*)c2c1; Hyp = O=C(O)[C@@H]1C[C@@H](O)CN1; X8 = COc1ccc2[nH]cc(CC(=O)*)c2c1; X7 = Cc1[nH]c2ccccc2c1CC(=O)*; pGlu = O=C1CC[C@@H](C(=O)O)N1; X2 = O=C(Cc1c[nH]c2ccccc12)*; NMePro = CN1CCC[C@H]1C(=O)*; X6 = O=C1NC(=O)C(CC(=O)*)N1; X1 = O=C1N[C@H](C(=O)*)CS1; Pip = O=C(O)[C@@H]1CCCCN1; X3 = O=C(c1cc(O)nc(O)n1)*; Thz = O=C(O)[C@@H]1CSCN1; Aze = O=C(O)[C@@H]1CCN1; X5 = O=C([C@@H]1CCCO1)*; PhAc = O=C(Cc1ccccc1)*; Bz = O=C(c1ccccc1)*

Test system: not listed separately
Experiment: T1/2 was evaluated in human plasma
Assay type: ADME, cell-free

half-life [min]	Molecule
11	H-WSRGDW-OH

Organism: Homo sapiens
Experiment: Inhibition of collagen-induced human platelet aggregation.
Assay type: functional

IC50 [µM]	Molecule
33	N=C(N)NCCC[C@H](NC(=O)[C@H](CO)NC(=O)[C@H]1CCCN1)C(=O)NCC(=O)N[C@@H](CC(=O)O)C(=O)N[C@@H](Cc1c[nH]c2ccccc12)C(=O)O
34	N=C(N)NCCC[C@H](NC(=O)[C@H](CO)NC(=O)c1ccccc1)C(=O)NCC(=O)N[C@@H](CC(=O)O)C(=O)N[C@@H](Cc1c[nH]c2ccccc12)C(N)=O (Bz-SRGDW-NH2)
6.9	N=C(N)NCCC[C@H](NC(=O)[C@H](CO)NC(=O)CC1NC(=O)NC1=O)C(=O)NCC(=O)N[C@@H](CC(=O)O)C(=O)N[C@@H](Cc1c[nH]c2ccccc12)C(=O)O (some centres not stated) (X6-SRGDW-OH)
5.6	N=C(N)NCCC[C@H](NC(=O)[C@H](CO)NC(=O)[C@@H]1CCC(=O)N1)C(=O)NCC(=O)N[C@@H](CC(=O)O)C(=O)N[C@@H](Cc1c[nH]c2ccccc12)C(=O)O ([pGlu]SRGDW-OH)
50	NC(=O)[C@H](Cc1ccccc1)NC(=O)[C@H](CC(=O)O)NC(=O)CNC(=O)[C@@H](N)CCCN=C(N)N (H-RGDF-NH2)
4	N=C(N)NCCC[C@H](NC(=O)[C@H](CO)NC(=O)c1cc(O)nc(O)n1)C(=O)NCC(=O)N[C@@H](CC(=O)O)C(=O)N[C@@H](Cc1c[nH]c2ccccc12)C(=O)O (X3-SRGDW-OH)
8.7	N=C(N)NCCC[C@H](NC(=O)[C@H](CO)NC(=O)[C@@H]1CC(=O)NC(=O)N1)C(=O)NCC(=O)N[C@@H](CC(=O)O)C(=O)N[C@@H](Cc1c[nH]c2ccccc12)C(=O)O ({Dihydroorotyl(S)}-SRGDW-OH)
20	CN1CCC[C@H]1C(=O)N[C@@H](CO)C(=O)N[C@@H](CCCN=C(N)N)C(=O)NCC(=O)N[C@@H](CC(=O)O)C(=O)N[C@@H](Cc1c[nH]c2ccccc12)C(=O)O (NMePro-SRGDW-OH)
11	N=C(N)NCCC[C@H](NC(=O)[C@H](CO)NC(=O)[C@@H]1CCCCN1)C(=O)NCC(=O)N[C@@H](CC(=O)O)C(=O)N[C@@H](Cc1c[nH]c2ccccc12)C(=O)O (H-[Pip]SRGDW-OH)
23	H-FSRGDW-OH
21	N=C(N)NCCC[C@H](NC(=O)[C@H](CO)NC(=O)Cc1c[nH]c2ccccc12)C(=O)NCC(=O)N[C@@H](CC(=O)O)C(=O)N[C@@H](Cc1c[nH]c2ccccc12)C(=O)O (X2-SRGDW-OH)
50	Ac-PSRGDW-OH
22	Cc1[nH]c2ccccc2c1CC(=O)N[C@@H](CO)C(=O)N[C@@H](CCCN=C(N)N)C(=O)NCC(=O)N[C@@H](CC(=O)O)C(=O)N[C@@H](Cc1c[nH]c2ccccc12)C(=O)O (X7-SRGDW-OH)
21	N=C(N)NCCC[C@H](NC(=O)[C@H](CO)NC(=O)CCCc1c[nH]c2ccccc12)C(=O)NCC(=O)N[C@@H](CC(=O)O)C(=O)N[C@@H](Cc1c[nH]c2ccccc12)C(=O)O ({Butyryl(4-indol-3-yl)}-SRGDW-OH)
11	COc1ccc2[nH]cc(CC(=O)N[C@@H](CO)C(=O)N[C@@H](CCCN=C(N)N)C(=O)NCC(=O)N[C@@H](CC(=O)O)C(=O)N[C@@H](Cc3c[nH]c4ccccc34)C(=O)O)c2c1 (X8-SRGDW-OH)
27	N=C(N)NCCC[C@H](NC(=O)[C@H](CO)NC(=O)[C@@H]1CSCN1)C(=O)NCC(=O)N[C@@H](CC(=O)O)C(=O)N[C@@H](Cc1c[nH]c2ccccc12)C(=O)O (H-[Thz]SRGDW-OH)
28	N=C(N)NCCC[C@H](NC(=O)[C@H](CO)NC(=O)[C@@H]1C[C@@H](O)CN1)C(=O)NCC(=O)N[C@@H](CC(=O)O)C(=O)N[C@@H](Cc1c[nH]c2ccccc12)C(=O)O (H-[Hyp]SRGDW-OH)
74	Ac-SRGDW-NH2
6.8	H-WSRGDW-OH
21	N=C(N)NCCC[C@H](NC(=O)[C@H](CO)NC(=O)CN1C(=O)c2ccccc2C1=O)C(=O)NCC(=O)N[C@@H](CC(=O)O)C(=O)N[C@@H](Cc1c[nH]c2ccccc12)C(N)=O (Phthalimidoacetyl-SRGDW-NH2)
1.3	N=C(N)NCCC[C@H](NC(=O)[C@H](CO)NC(=O)[C@@H]1CCN1)C(=O)NCC(=O)N[C@@H](CC(=O)O)C(=O)N[C@@H](Cc1c[nH]c2ccccc12)C(=O)O (H-[Aze]SRGDW-OH)
59	N=C(N)NCCC[C@H](NC(=O)[C@H](CO)NC(=O)Cc1ccccc1)C(=O)NCC(=O)N[C@@H](CC(=O)O)C(=O)N[C@@H](Cc1c[nH]c2ccccc12)C(N)=O (PhAc-SRGDW-NH2)
12	N=C(N)NCCC[C@H](NC(=O)[C@H](CO)NC(=O)[C@@H]1CSC(=O)N1)C(=O)NCC(=O)N[C@@H](CC(=O)O)C(=O)N[C@@H](Cc1c[nH]c2ccccc12)C(=O)O (X1-SRGDW-OH)
0.87	N=C(N)NCCC[C@H](NC(=O)[C@H](CO)NC(=O)[C@@H]1CCCN1)C(=O)NCC(=O)N[C@@H](CC(=O)O)C(=O)N[C@@H](Cc1c[nH]c2ccccc12)C(=O)O
21	N=C(N)NCCC[C@H](NC(=O)[C@H](CO)NC(=O)[C@@H]1CCCO1)C(=O)NCC(=O)N[C@@H](CC(=O)O)C(=O)N[C@@H](Cc1c[nH]c2ccccc12)C(=O)O (X5-SRGDW-OH)
25	COc1ccc2[nH]c(C)c(CC(=O)N[C@@H](CO)C(=O)N[C@@H](CCCN=C(N)N)C(=O)NCC(=O)N[C@@H](CC(=O)O)C(=O)N[C@@H](Cc3c[nH]c4ccccc34)C(=O)O)c2c1 (X4-SRGDW-OH)
